# Test results taken from patent US20040018983A1, “Antifungal compositions” (Achillion Pharmaceuticals, Inc., priority 2001, published 2004).
# Read-outs that look alike come from different tables or passages of the source.
# System: C. albicans
# Experiment: Fungal susceptibility to zinc finger selective antifungals: broth microdilution growth inhibition (OD 405 nm), with and without a zinc finger blocking compound
# Type: cell-based, Candida albicans
# Settings: for MIC: Candida albicans, 48 h, read-out: C. albicans MIC; for Fold Increase: increase of MIC with blocking compound (cysteine or glutathione) over MIC alone; for C. albicans MIC + 200 μg/ml cysteine: with 200 μg/ml cysteine as zinc finger blocking compound; for C. albicans MIC + 200 μg/ml glutathione: with 200 μg/ml glutathione as zinc finger blocking compound; for blocking of antifungal action by glutathione and cysteine (zinc finger mechanism): discussion of Table 2
# Experimental: A panel of Candida clinical isolates (including azole-resistant species) plus single isolates of Aspergillus fumigates, were used to evaluate the activity of the test compounds in vitro. Inocula were prepared as broth cultures (yeasts) or as suspensions of fungal material made from agar slope cultures (molds). The test compounds were pipetted from DMSO stock solution into water to provide a series of […] dilutions. […] (other fungi). Growth in the microcultures was measured by its optical density (OD) measured at a wavelength of 405 nm. The OD for cultures with test compounds was calculated as a percentage of the control, drug-free OD. Inhibition of growth to 35% of control or less was recorded as significant inhibition (Table 2).
# [1] = no blocking compound, CYG medium, 2 days at 37° C., inhibition of growth to 35% of control or less
SMILES,MIC [1],Fold Increase,C. albicans MIC + 200 μg/ml cysteine,C. albicans MIC + 200 μg/ml glutathione,blocking of antifungal action by glutathione and cysteine (zinc finger mechanism),MIC
"O=Nc1ccc2oc(=O)ccc2c1 [Compound 2, 6-nitroso-1,3-benzopyrene]",4 µg/mL,4 Fold,16 µg/mL,16 µg/mL,,
"Cc1ccccc1N=O [Compound 4, 2-nitrosotoluene]",16 µg/mL,0 Fold,16 µg/mL,16 µg/mL,not blocked by either glutathione or cysteine,
"c1csc(SSc2cccs2)c1 [Compound 6, di(2-thienyl)disulphide]",8 µg/mL,2 Fold,16 µg/mL,16 µg/mL,,
"CN(C)c1ccc(N=O)cc1 [Compound 9, 4-nitroso-N,N-dimethylaniline]",,,,,"blocked to a somewhat different extent by the two different blocking compounds, but in both cases the effect is significant",
"O=Nc1ccc(Nc2ccccc2)cc1 [Compound 12, 4-nitrosodiohenylamine]",,8 Fold,16 µg/mL,16 µg/mL,,2 µg/mL
